Measured values published in the supplement of paper PMC5412046.
Counter-ions that a name gives are not always drawn.

Legend:
SB.mhdgc-1 [1] = test: viability at highest tested concentration (MAXR) relative to DMSO; higher = less cytotoxic; conditions: SB.mhdgc-1 (hereditary c.1380delA CDH1 gastric cancer)
How it was run: (§1)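 Gastric cancer cells derived from hereditary or sporadic patients were treated for 48 h with compound at 11 threefold dilutions, with the top concentration recorded per compound. Viability was then read by CellTiter-Glo luminescence. Data are viability normalised to DMSO, at the highest concentration or as trapezoidal area under the curve.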

SB.msgc-1 [2] = test: as above; conditions: SB.msgc-1 (sporadic gastric cancer)
How it was run: as §1

SB.mhdgc-1 [3] = test: area under the dose-response curve of % viability (trapezoidal, 11 doses) (% viability x log10 concentration); higher = less cytotoxic; conditions: SB.mhdgc-1 (hereditary c.1380delA CDH1 gastric cancer)
How it was run: as §1

SB.msgc-1 [4] = test: as above; conditions: SB.msgc-1 (sporadic gastric cancer)
How it was run: as §1

Structure (SMILES) | viability (SB.mhdgc-1 [1]) [%] | viability (SB.msgc-1 [2]) [%] | area under the dose-response curve (SB.mhdgc-1 [3]) | area under the dose-response curve (SB.msgc-1 [4])
N[S+](=O)([O-])OC[C@@H]1C[C@@H](n2ccc3c(N[C@H]4CCc5ccccc54)ncnc32)C[C@@H]1O [MLN-4924] (top concentration 46.0829 µM) | 69.4 | 37.5 | 536 | 400
Cc1nc(NC(=O)N2CCC[C@H]2C(N)=O)sc1-c1csc(C(C)(C)C)n1 [A-66] (top concentration 46.0829 µM) | 33.3 | 37.4 | 377 | 352
CCc1ccc(CCOc2ccc(CC3SC(=O)NC3=O)cc2)nc1 (stereo unspecified) [Pioglitazone HCl] (top concentration 46.0829 µM) | 112 | 91.4 | 579 | 506
CCC1=C[C@@H]2CN(C1)Cc1c([nH]c3ccccc13)[C@@](C(=O)OC)(c1cc3c(cc1OC)N(C)[C@H]1[C@@](O)(C(=O)OC)[C@H](OC(C)=O)[C@]4(CC)C=CCN5CC[C@]31[C@@H]54)C2 [Vinorelbine] (top concentration 46.0829 µM) | 15.2 | 43.5 | 264 | 347
Cn1cc(-c2cnn3c(N)c(Br)c([C@H]4CCCNC4)nc23)cn1 (top concentration 46.0829 µM) | 24.7 | 73 | 354 | 440
COC1=CC(=C2C(=O)N(COC/3=C/C(=O)N4\C=C/C=C(OCCN5CCCCC5)\C4=N3)[S+]([O-])(=O)C2=C1)C(C)C (top concentration 46.0829 µM) | 2.92 | 39.7 | 475 | 478
COC(=O)Nc1nc2cc(C(=O)c3ccccc3)ccc2[nH]1 [Mebendazole] (top concentration 46.0829 µM) | 29.2 | 33.2 | 391 | 434
CC1(C)CCC[C@]2(C)[C@H]3CC(=O)O[C@]3(C)CC[C@@H]12 [Sclareolide] (top concentration 46.0829 µM) | 65 | 50.1 | 573 | 530
Clc1ccc(CCC(Cn2ccnc2)Sc2c(Cl)cccc2Cl)cc1 (stereo unspecified) [Butoconazole nitrate] (top concentration 46.0829 µM) | 24.9 | 31.7 | 426 | 456
CC(=O)NC[C@H]1CN(c2ccc(N3CCOCC3)c(F)c2)C(=O)O1 [Linezolid] (top concentration 46.0829 µM) | 108 | 101 | 596 | 565
O=C1NC(=O)/C(=C/c2ccc3c(c2)OC(F)(F)O3)S1 (top concentration 46.0829 µM) | 22.1 | 45.3 | 453 | 467
CC[C@]12CC[C@H]3[C@@H](CCC/4=C/C(=O)CC[C@H]34)[C@@H]1CC[C@@]2(O)C#C [Levonorgestrel] (top concentration 46.0829 µM) | 98.5 | 77.2 | 472 | 512
FC1=CC=C(SC/2=N/N3\C=N/C(=O)/C(=C3/C=C2)C4=C(Cl)C=CC=C4Cl)C(=C1)F [VX-745] (top concentration 46.0829 µM) | 33.6 | 62 | 542 | 495
C[C@@H](Oc1cc(-n2cnc3ccc(CN4CCN(C)CC4)cc32)sc1C(N)=O)c1ccccc1C(F)(F)F (top concentration 46.0829 µM) | 6.24 | 56.5 | 287 | 374
CNC(=O)c1ccc(Nc2cc(Nc3ccccc3[S+](=O)([O-])C(C)C)c3cc[nH]c3n2)nc1 (top concentration 46.0829 µM) | 14.3 | 15.6 | 517 | 480
C[C@]1(c2nc3c(C(N)=O)cccc3[nH]2)CCCN1 [Veliparib] (top concentration 46.0829 µM) | 54.2 | 69.4 | 404 | 447
CN(C)CCCC1(c2ccc(F)cc2)OCc2cc(C#N)ccc21 (stereo unspecified) [Citalopram hydrobromide] (top concentration 46.0829 µM) | 55.1 | 36.7 | 483 | 330

Structure (SMILES) | viability (SB.mhdgc-1 [1]) [%] | viability (SB.msgc-1 [2]) [%] | area under the dose-response curve (SB.mhdgc-1 [3]) | area under the dose-response curve (SB.msgc-1 [4])
O=C(NC1CC1)c1cccc(-c2ccc3c(NC(=O)C4CC4)n[nH]c3c2)c1 (top concentration 46.0829 µM) | 22.1 | 34.6 | 289 | 398
CNC(=O)c1ccc2cc(C3(O)CCn4cncc43)ccc2c1 (stereo unspecified) [Orteronel] (top concentration 46.0829 µM) | 109 | 94.9 | 556 | 534
Cc1c[nH]c(-c2cnc(NCCNc3ccc(C#N)cn3)nc2-c2ccc(Cl)cc2Cl)n1 (top concentration 46.0829 µM) | 45.1 | 41.5 | 338 | 415
CCCCN(CCCC)CC(O)c1cc(Cl)cc2c1-c1ccc(Cl)cc1/C2=C/c1ccc(Cl)cc1 (stereo unspecified) [Lumefantrine] (top concentration 46.0829 µM) | 12 | 60.5 | 560 | 476
COc1c(C)cnc(Cn2cnc3c(Cl)nc(N)nc32)c1C [CNF-2024] (top concentration 46.0829 µM) | 61.7 | 39.2 | 375 | 353
CCOC(=O)N1c2ccc(C(F)(F)F)cc2[C@@H](N(Cc2cc(C(F)(F)F)cc(C(F)(F)F)c2)C(=O)OC)C[C@H]1CC [Torcetrapib] (top concentration 46.0829 µM) | 57.1 | 60.6 | 538 | 503
Cn1c(=O)c2c(ncn2CC(O)CO)n(C)c1=O (stereo unspecified) [Dyphylline] (top concentration 46.0829 µM) | 117 | 103 | 543 | 537
C[C@]12CC[C@@H]3c4ccc(O)cc4CC[C@H]3[C@@H]1[C@@H](O)[C@@H](O)[C@@H]2O [Estetrol] (top concentration 46.0829 µM) | 7.6 | 78.6 | 439 | 549
CO[C@H]1C[C@@H]2CC[C@@H](C)[C@@](O)(O2)C(=O)C(=O)N2CCCC[C@H]2C(=O)O[C@H]([C@H](C)C[C@@H]2CC[C@@H](OP(C)(C)=O)[C@H](OC)C2)CC(=O)[C@H](C)/C=C(\C)[C@@H](O)[C@@H](OC)C(=O)[C@H](C)C[C@H](C)/C=C/C=C/C=C/1C [Ridaforolimus] (top concentration 46.0829 µM) | 73.6 | 70.8 | 383 | 475
CCC1=C2C=C(OC(=O)N3CCC(CC3)N4CCCCC4)C=CC2=NC\5=C1CN6C(=O)\C7=C(/C=C56)[C@@](O)(CC)C(=O)OC7 [Irinotecan] (top concentration 46.0829 µM) | 26.6 | 42.7 | 321 | 394
CC(C)C(=O)Nc1ncc(-c2cc(C(F)F)nn2-c2c(Cl)cccc2Cl)s1 [BMS-5] (top concentration 46.0829 µM) | 41.3 | 34.6 | 459 | 514
O=C1c2c(O)cc(O)cc2O[C@H](c2cc(O)c(O)c(O)c2)[C@H]1O [Dihydromyricetin] (top concentration 46.0829 µM) | 19.1 | 62.8 | 460 | 512
OC[C@H]1O[C@H]([C@@H](F)[C@@H]1O)N2\C=C/C(=O)NC2=O (top concentration 46.0829 µM) | 46.4 | 38.1 | 538 | 451
CSCC[C@H](NC(=O)[C@H](Cc1c[nH]c2ccccc12)NC(=O)CCNC(=O)OC(C)(C)C)C(=O)N[C@@H](CC(=O)O)C(=O)N[C@@H](Cc1ccccc1)C(N)=O [Pentagastrin] (top concentration 46.0829 µM) | 52.5 | 34.2 | 457 | 488
C[C@]12COC(=O)C[C@@H]1CC[C@@H]1[C@@H]2CC[C@@]2(C)[C@H]1CC[C@]2(C)O [Oxandrolone] (top concentration 46.0829 µM) | 85.3 | 102 | 542 | 542
Cc1cccc(-c2[nH]c(C(C)(C)C)nc2-c2ccc3c(c2)OCO3)n1 (top concentration 46.0829 µM) | 7.36 | 22.8 | 512 | 457
CC(NC(C)(C)C)C(=O)c1cccc(Cl)c1 (stereo unspecified) [Bupropion hydrochloride] (top concentration 46.0829 µM) | 89.5 | 102 | 522 | 514
